# Experimental data as given in patent US9302999B2, “Substituted triazoles as herbicides” (E. I. DU PONT DE NEMOURS AND COMPANY, priority 2012, dated 2016).
# Columns and labels:
# Format in all cases: in vivo
# [1] = tested on: kochia (Kochia scoparia); test: Test D pre-/postemergence: kochia
# Description: (§1) Seeds of plant species selected from bluegrass (annual bluegrass, Poa annua), blackgrass (Alopecurus myosuroides), canarygrass (Phalaris minor), chickweed (common chickweed, Stellaria media), galium (catchweed bedstraw, Galium aparine), bromegrass, downy (downy bromegrass, Bromus tectorum), field poppy (Papaver rhoeas), field violet (Viola arvensis), foxtail, green (green foxtail, Setaria viridis), deadnettle (henbit deadnettle, Lamium amplexicaule), ryegrass, Italian (Italian ryegrass, Lolium multiflorum), kochia (Kochia scoparia), lambsquarters (Chenopodium album), oilseed rape (Brassica napus), pigweed (Amaranthus retroflexus), Russian thistle (Salsola iberica), chamomile (scentless chamomile, Matricaria inodora), speedwell (bird's-eye speedwell, Veronica persica), barley, spring (spring barley, Hordeum vulgare), wheat, spring (spring wheat, Triticum aestivum), buckwheat, wild (wild buckwheat, Polygonum convolvulus), mustard, wild (wild mustard, Sinapis arvensis), oat, wild (wild oat, Avena fatua), radish, wild (wild radish, Raphanus raphanistrum), windgrass (Apera spica-venti), barley, winter (winter barley, Hordeum vulgare), and wheat, winter (winter wheat, Triticum aestivum) were planted into a silt loam soil and treated preemergence with test chemicals formulated in a non-phytotoxic solvent mixture which included a surfactant. At the same time, these same crop and weed species were planted in pots containing the planting medium comprising spaghnum peat moss, vermiculite, wetting agent and starter nutrients and treated with postemergence applications of the test chemicals formulated in the same manner. Plants ranged in height from 2 to 18 cm (1- to 4-leaf stage).
# (§2) Treated plants and controls were maintained in a controlled growth environment for 14 to 21 days after which time all species were compared to controls and visually evaluated. Plant response ratings, summarized in Table D, are based on a scale of 0 to 100 where 0 is no effect and 100 is complete control. A dash (-) response means no test result.
# [2] = tested on: deadnettle (henbit deadnettle, Lamium amplexicaule); test: Test D pre-/postemergence: deadnettle
# Description: as §1, §2
# [3] = tested on: barley, winter (winter barley, Hordeum vulgare); test: Test D pre-/postemergence: barley, winter
# Description: as §1, §2
# [4] = tested on: blackgrass (Alopecurus myosuroides); test: Test D pre-/postemergence: blackgrass
# Description: as §1, §2
# [5] = Postemergence, 31 g ai/ha, scale 0 to 100 (0 no effect, 100 complete control)
# [6] = Postemergence, 62 g ai/ha, scale 0 to 100 (0 no effect, 100 complete control)
# [7] = Postemergence, 125 g ai/ha, scale 0 to 100, 0 no effect, 100 complete control
# [8] = Postemergence, 250 g ai/ha, scale 0 to 100 (0 no effect, 100 complete control)
# [9] = Preemergence, 31 g ai/ha, scale 0 to 100, 0 no effect, 100 complete control
# [10] = Preemergence, 62 g ai/ha, scale 0 to 100
# [11] = Preemergence, 125 g ai/ha, scale 0 to 100
# [12] = Preemergence, 250 g ai/ha, scale 0 to 100
# [13] = Postemergence, 16 g ai/ha, scale 0 to 100
# [14] = Preemergence, 16 g ai/ha, scale 0 to 100, 0 no effect, 100 complete control
SMILES,"Plant response rating: Kochia [1, 5]","Plant response rating: Kochia [1, 6]","Plant response rating: Kochia [1, 7]","Plant response rating: Kochia [1, 8]","Plant response rating: Deadnettle [2, 5]","Plant response rating: Deadnettle [2, 6]","Plant response rating: Deadnettle [2, 7]","Plant response rating: Deadnettle [2, 8]","Plant response rating: Barley, Winter [3, 5]","Plant response rating: Barley, Winter [3, 6]","Plant response rating: Barley, Winter [3, 7]","Plant response rating: Barley, Winter [3, 8]","Plant response rating: Blackgrass [4, 5]","Plant response rating: Blackgrass [4, 6]","Plant response rating: Blackgrass [4, 7]","Plant response rating: Blackgrass [4, 8]","Plant response rating, Kochia [1, 13]","Plant response rating, Deadnettle [2, 13]","Plant response rating, Barley, Winter [3, 13]","Plant response rating, Blackgrass [4, 13]",further results
"FC(F)(F)COc1nn(-c2ccc(C(F)(F)F)cc2)nc1Cc1ccnc(C(F)(F)F)c1 [Compound 14, 4-[[5-(2,2,2-trifluoroethoxy)-2-[4-(trifluoromethyl)phenyl]-2H-1,2,3-triazol-4-yl]methyl]-2-(trifluoromethyl)pyridine]",95,95,100,100,25,40,100,100,10,25,35,40,25,35,70,85,,,,,"Plant response rating, Kochia [1, 9]: 10; Plant response rating, Kochia [1, 10]: 40; Plant response rating, Kochia [1, 11]: 80; Plant response rating, Kochia [1, 12]: 90; Plant response rating, Deadnettle [2, 9]: 60; Plant response rating, Deadnettle [2, 10]: 70; Plant response rating, Deadnettle [2, 11]: 100; Plant response rating, Deadnettle [2, 12]: 100; Plant response rating, Barley, Winter [3, 9]: 0; Plant response rating, Barley, Winter [3, 10]: 0; Plant response rating, Barley, Winter [3, 11]: 10; Plant response rating, Barley, Winter [3, 12]: 35; Plant response rating, Blackgrass [4, 9]: 0; Plant response rating, Blackgrass [4, 10]: 0; Plant response rating, Blackgrass [4, 11]: 10; Plant response rating, Blackgrass [4, 12]: 60"
"COc1nn(-c2ccc(C(F)(F)F)cc2)nc1Cc1ccnc(C(F)(F)F)c1 [Compound 15, 4-[[5-methoxy-2-[4-(trifluoromethyl)phenyl]-2H-1,2,3-triazol-4-yl]methyl]-2-(trifluoromethyl)pyridine]",90,90,100,100,75,98,100,100,10,15,20,40,15,30,50,85,20,50,10,15,"Plant response rating, Kochia [1, 9]: 0; Plant response rating, Kochia [1, 10]: 0; Plant response rating, Kochia [1, 11]: 70; Plant response rating, Kochia [1, 12]: 100; Plant response rating, Deadnettle [2, 9]: 10; Plant response rating, Deadnettle [2, 10]: 40; Plant response rating, Deadnettle [2, 11]: 95; Plant response rating, Deadnettle [2, 12]: 100; Plant response rating, Barley, Winter [3, 9]: 0; Plant response rating, Barley, Winter [3, 10]: 5; Plant response rating, Barley, Winter [3, 11]: 20; Plant response rating, Barley, Winter [3, 12]: 30; Plant response rating, Blackgrass [4, 9]: 0; Plant response rating, Blackgrass [4, 10]: 25; Plant response rating, Blackgrass [4, 11]: 80; Plant response rating, Blackgrass [4, 12]: 90"
Cc1nn(-c2ccc(C(F)(F)F)cn2)nc1Oc1ccnc(C(F)(F)F)c1 [Compound 23],80,85,90,95,30,50,60,90,0,10,10,20,10,10,20,30,20,20,0,5,
Cc1nn(-c2ccc(C(F)(F)F)cn2)nc1Cc1cccc(C(F)(F)F)c1 [Compound 106],60,70,95,100,30,40,60,80,5,5,5,10,10,10,20,30,60,20,0,5,"Plant response rating, Kochia [1, 9]: 0; Plant response rating, Kochia [1, 10]: 0; Plant response rating, Kochia [1, 11]: 30; Plant response rating, Kochia [1, 12]: 30; Plant response rating, Deadnettle [2, 9]: 0; Plant response rating, Deadnettle [2, 10]: 0; Plant response rating, Deadnettle [2, 11]: 0; Plant response rating, Deadnettle [2, 12]: 0; Plant response rating, Barley, Winter [3, 9]: 0; Plant response rating, Barley, Winter [3, 10]: 0; Plant response rating, Barley, Winter [3, 11]: 0; Plant response rating, Barley, Winter [3, 12]: 20; Plant response rating, Blackgrass [4, 9]: 0; Plant response rating, Blackgrass [4, 10]: 0; Plant response rating, Blackgrass [4, 11]: 0; Plant response rating, Blackgrass [4, 12]: 0"
Cc1nn(-c2ccc(C(F)(F)F)cc2)nc1Oc1ccnc(C(F)(F)F)c1 [Compound 120],98,100,100,100,90,90,100,100,15,20,20,40,10,30,75,85,98,30,10,5,"Plant response rating, Kochia [1, 14]: 0; Plant response rating, Kochia [1, 9]: 10; Plant response rating, Kochia [1, 10]: 30; Plant response rating, Kochia [1, 11]: 95; Plant response rating, Kochia [1, 12]: 100; Plant response rating, Deadnettle [2, 14]: 0; Plant response rating, Deadnettle [2, 9]: 85; Plant response rating, Deadnettle [2, 10]: 100; Plant response rating, Deadnettle [2, 11]: 100; Plant response rating, Deadnettle [2, 12]: 100; Plant response rating, Barley, Winter [3, 14]: 0; Plant response rating, Barley, Winter [3, 9]: 0; Plant response rating, Barley, Winter [3, 10]: 10; Plant response rating, Barley, Winter [3, 11]: 15; Plant response rating, Barley, Winter [3, 12]: 40; Plant response rating, Blackgrass [4, 14]: 0; Plant response rating, Blackgrass [4, 9]: 80; Plant response rating, Blackgrass [4, 10]: 98; Plant response rating, Blackgrass [4, 11]: 100; Plant response rating, Blackgrass [4, 12]: 100"
COc1nn(-c2ccc(C(F)(F)F)cc2)nc1Cc1ccnc(C(F)F)c1 [Compound 138],95,100,100,100,50,75,80,95,5,15,20,20,50,70,80,85,95,50,5,30,
